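All cell lines were grown in 96-well plates and treated with compound for 48 hours. TGI denotes the concentration required for complete inhibition of growth.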
What was measured:
Experiment in all cases: inhibition of tumour cell growth, NCI panel, 48 h
A549 NSCLC = system: A549 NSCLC
CAKI-1 renal = system: CAKI-1 renal
COLO 205 colon = system: COLO 205 colon
HCT-116 colon = system: HCT-116 colon
MDA-MB-231 breast = system: MDA-MB-231 breast
NCI-H23 lung = system: NCI-H23 lung
NCI-H460 lung = system: NCI-H460 lung
OVCAR-4 ovarian = system: OVCAR-4 ovarian
U251 CNS = system: U251 CNS
UO-31 renal = system: UO-31 renal

Compound	TGI (A549 NSCLC)	TGI (CAKI-1 renal)	TGI (COLO 205 colon)	TGI (HCT-116 colon)	TGI (MDA-MB-231 breast)	TGI (NCI-H23 lung)	TGI (NCI-H460 lung)	TGI (OVCAR-4 ovarian)	TGI (U251 CNS)	TGI (UO-31 renal)
N#Cc1c(-c2ccc(Cl)cc2)c2c(n(C3OC(CO)C(O)C(O)C3O)c1=S)CCC2 (stereo not drawn)	> 100 µM	> 100 µM	63.8 µM	98.4 µM	> 100 µM	70.6 µM	> 100 µM	> 100 µM	84.9 µM	> 100 µM
C=C(CO[Si](C)(C)C(C)(C)C)C(C)=O	> 100 µM	46.9 µM	> 71 µM	27 µM	46.6 µM	> 56.3 µM	> 100 µM	44.4 µM	> 100 µM	> 66 µM
O=C(Cn1c(C(=O)/C=C/c2cccs2)nc2ccccc21)c1ccc(Cl)cc1	> 100 µM		38.3 µM	39.5 µM	46 µM	36.8 µM	25.8 µM	76.9 µM	30.3 µM	69.6 µM
CCOC(=O)c1cnc2oc3ccc(O)cc3c2c1-c1ccccc1	> 100 µM	> 100 µM	> 100 µM	> 100 µM	84.5 µM	> 100 µM	> 100 µM	> 100 µM	> 100 µM	
CCOC(=O)C(NC(=O)CC)(Nc1cc(C)on1)C(F)(F)F (stereo not drawn)	> 100 µM		> 100 µM	> 100 µM		> 100 µM			> 100 µM	> 100 µM
COc1cc(/C=C2\Sc3scc(-c4cccc([N+](=O)[O-])c4)[n+]3C2=O)cc(OC)c1OC	54.3 µM	17.8 µM	15.1 µM	26.4 µM	25.2 µM	33.2 µM	24.2 µM	31.5 µM	26.3 µM	19 µM
CC(C)C(OC(=O)c1ccc(NCc2cc(O)ccc2O)cc1)C(C)C	20.7 µM	0.701 µM	5.56 µM	14 µM	9.15 µM	6.56 µM	14.7 µM	4.33 µM	2.85 µM	2.42 µM
COC1OC2COC1(OC)C1OC(C)(C)OC21 (stereo not drawn)	> 100 µM	> 100 µM	> 100 µM	> 100 µM	> 100 µM	> 100 µM	> 100 µM	> 100 µM	> 100 µM	> 100 µM
CC(=O)Oc1c2oc3ccc(Cl)cc3c(=O)c2c(O)c2ccsc12	> 100 µM	> 100 µM	> 100 µM	> 100 µM	> 100 µM	> 100 µM	> 100 µM	> 100 µM	> 100 µM	> 100 µM
Nc1ccccc1CC(O)C(=O)O (stereo not drawn)	> 100 µM	> 100 µM	> 100 µM	> 100 µM	> 100 µM	> 100 µM	> 100 µM		> 100 µM	
CC1CC/C(=C\c2ccc(Cl)cc2)C2OC(N)=C(C#N)C(c3ccc(Cl)cc3)=C12 (stereo not drawn)		31.2 µM	25.2 µM	27.4 µM	23.7 µM	29.4 µM			30.6 µM	24.9 µM
CCN(C(=S)N[C@H](C(=O)N[C@@H](C)C(=O)OC)C(C)C)c1ccccc1	> 100 µM	> 100 µM	> 100 µM	> 100 µM	> 100 µM	> 100 µM	> 100 µM	> 100 µM	> 100 µM	> 100 µM
OC(CCNCc1ccccc1)c1ccc2ccccc2c1 (stereo not drawn)	36.3 µM	42.6 µM	47.2 µM	47.1 µM	35.3 µM	62.1 µM	35.1 µM	72.9 µM	30.6 µM	32.3 µM
COc1ccc(-c2cc(-c3cc4cc(Br)ccc4nc3Cl)c(C#N)c(N)n2)cc1	> 12.5 µM	> 12.5 µM	> 12.5 µM	> 12.5 µM		> 12.5 µM		> 12.5 µM		> 12.5 µM
NNC(=O)Cn1c2ccc(Br)cc2c2nc3ccccc3nc21	> 100 µM	> 100 µM	> 100 µM		> 100 µM	> 100 µM			> 100 µM	> 100 µM
CCOC(=O)c1nc2ccc(C(F)(F)F)cc2nc1Oc1cc(OC)cc(OC)c1	> 100 µM		> 100 µM	> 100 µM	> 100 µM		> 100 µM	95.1 µM	> 100 µM	> 100 µM
O=c1c2cc(I)ccc2nc(-c2cccs2)n1-c1ccc(O)cc1	27.4 µM	32.9 µM	36.1 µM	27.4 µM		36.7 µM	52.6 µM	49.1 µM	48.5 µM	25.4 µM
Cc1ccc2c(c1C)C(=O)/C(=C/c1ccccc1C(=O)O)C2	> 100 µM	> 100 µM	> 100 µM	> 100 µM		> 100 µM	> 100 µM	> 100 µM	> 100 µM	> 100 µM
CCN(CC)c1ccc2cc(C(=O)Nc3cccc4ccccc34)c(=N)oc2c1	> 100 µM	> 100 µM	> 100 µM	> 100 µM	> 100 µM		> 100 µM	> 100 µM	> 100 µM	> 100 µM
CCOc1cc(C2CC(c3ccc(NS(=O)(=O)c4cc([N+](=O)[O-])ccc4C)cc3)=NN2c2ccc([N+](=O)[O-])cc2[N+](=O)[O-])ccc1O (stereo not drawn)	28.1 µM	56.5 µM	52.4 µM	26.1 µM	20.6 µM	42.9 µM		11 µM	29.2 µM	39.8 µM
CN(C)c1nc2oc(-c3ccccc3)c(-c3ccccc3)c2c2nnnn12	> 100 µM	> 100 µM	> 100 µM	> 100 µM	> 100 µM	> 100 µM		> 100 µM	> 100 µM	> 100 µM
COc1ccc(C2=NN(c3ccccc3)C[N+](c3ccc(OC)cc3)=N2)cc1	> 100 µM			> 100 µM		93.1 µM	> 100 µM	64 µM	49.8 µM	71.1 µM

— PubChem BioAssay (NCI)
